Results: ChEMBL document CHEMBL1145799, “Spirocyclopropyl beta-lactams as mechanism-based inhibitors of serine beta-lactamases. Synthesis by rhodium-catalyzed cyclopropanation of 6-diazopenicillanate sulfone” (J Med Chem, 2003)
Blank lines part the entries; values can stand above or below the compound they belong to.

Legend:
Escherichia coli = assay: In vitro antibacterial activity against Escherichia coli GC6265; format: functional
[1] = target: Beta-lactamase (Enterobacter cloacae) (UniProt P05364); details: Pseudomonas aeruginosa
Description: In vitro antibacterial activity against Pseudomonas aeruginosa Beta-lactamase AmpC of class C enzyme

[2] = target: Beta-lactamase (Enterobacter cloacae) (UniProt P05364); details: Serratia marcescens
[3] = target: Beta-lactamase TEM (Escherichia coli) (UniProt P62593)
Beta-lactamase = Beta-lactamase (Enterobacter cloacae, UniProt P05364); assay: In vitro inhibitory activity against Beta-lactamase AmpC of class C enzyme
Serratia marcescens = assay: In vitro antibacterial activity against Serratia marcescens GC4132 Beta-lactamase AmpC of class C enzyme; format: functional

Sequence of Beta-lactamase TEM (Escherichia coli) (P62593 whole entry): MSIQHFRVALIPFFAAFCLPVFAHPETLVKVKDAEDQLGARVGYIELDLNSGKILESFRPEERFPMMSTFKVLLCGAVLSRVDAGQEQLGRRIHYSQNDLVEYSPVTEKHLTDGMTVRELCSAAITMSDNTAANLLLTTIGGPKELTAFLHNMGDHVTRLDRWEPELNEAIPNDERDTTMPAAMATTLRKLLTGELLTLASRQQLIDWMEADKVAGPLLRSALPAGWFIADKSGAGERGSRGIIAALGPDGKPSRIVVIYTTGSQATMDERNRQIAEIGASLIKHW
Sequence of Beta-lactamase (P05364 whole entry): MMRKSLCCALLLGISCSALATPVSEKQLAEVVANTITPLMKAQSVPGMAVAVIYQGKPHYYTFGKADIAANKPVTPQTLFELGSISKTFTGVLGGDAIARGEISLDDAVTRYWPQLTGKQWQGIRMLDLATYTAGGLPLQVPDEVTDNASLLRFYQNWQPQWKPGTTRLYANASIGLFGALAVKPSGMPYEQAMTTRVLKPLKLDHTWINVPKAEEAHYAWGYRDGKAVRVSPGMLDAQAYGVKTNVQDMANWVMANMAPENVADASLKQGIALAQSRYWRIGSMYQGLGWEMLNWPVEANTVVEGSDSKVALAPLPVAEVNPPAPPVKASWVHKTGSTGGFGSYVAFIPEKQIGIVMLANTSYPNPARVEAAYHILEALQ
Sequence of Beta-lactamase (Enterobacter cloacae) (P05364 21-381 limits assumed): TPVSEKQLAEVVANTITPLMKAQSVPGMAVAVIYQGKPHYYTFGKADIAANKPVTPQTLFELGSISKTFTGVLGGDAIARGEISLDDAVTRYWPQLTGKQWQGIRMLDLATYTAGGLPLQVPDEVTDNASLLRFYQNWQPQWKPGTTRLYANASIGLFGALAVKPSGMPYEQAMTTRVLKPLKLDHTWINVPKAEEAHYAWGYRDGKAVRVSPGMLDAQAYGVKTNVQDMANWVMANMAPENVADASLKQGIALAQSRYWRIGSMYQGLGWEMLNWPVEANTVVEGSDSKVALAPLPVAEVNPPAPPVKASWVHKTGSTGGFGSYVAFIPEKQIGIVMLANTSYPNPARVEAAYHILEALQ

SMILES: CC(C)(C)[Si](C)(C)O[C@H]1C[C@]12C(=O)N1[C@@H](C(=O)O)C(C)(C)S(=O)(=O)[C@@H]12.CCN1CCN(C(=O)N[C@@H](C(=O)N[C@@H]2C(=O)N3[C@@H]2SC(C)(C)[C@@H]3C(=O)O)c2ccccc2)C(=O)C1=O [listing 1 of 2 here]
MIC (Escherichia coli): < 0.06 µg/mL

SMILES: CC(C)(C)[Si](C)(C)O[C@H]1C[C@]12C(=O)N1[C@@H](C(=O)O)C(C)(C)S(=O)(=O)[C@@H]12.CCN1CCN(C(=O)N[C@@H](C(=O)N[C@@H]2C(=O)N3[C@@H]2SC(C)(C)[C@@H]3C(=O)O)c2ccccc2)C(=O)C1=O [listing 2 of 2 here]
MIC [1]: 8 µg/mL
MIC [2]: 8 µg/mL
MIC [3]: 4 µg/mL

SMILES: CCN1CCN(C(=O)N[C@@H](C(=O)N[C@@H]2C(=O)N3[C@@H]2SC(C)(C)[C@@H]3C(=O)O)c2ccccc2)C(=O)C1=O.C[C@]1(Cn2ccnn2)[C@H](C(=O)O)N2C(=O)C[C@H]2S1(=O)=O [listing 1 of 2 here]
MIC (Serratia marcescens): 32 µg/mL

SMILES: CC(C)(C)[Si](C)(C)O[C@H]1CC12C(=O)N1C(C(=O)O)C(C)(C)S(=O)(=O)[C@@H]12 (single isomer, unassigned)
IC50 (Beta-lactamase): 4100 nM

SMILES: CC(C)(C)[Si](C)(C)O[C@H]1C[C@]12C(=O)N1[C@@H](C(=O)O)C(C)(C)S(=O)(=O)[C@@H]12
IC50 (Beta-lactamase): 20 nM

SMILES: CC(C)(C)[Si](C)(C)O[C@@H]1CC12C(=O)N1[C@@H](C(=O)O)C(C)(C)S(=O)(=O)[C@@H]12 (single isomer, unassigned)
IC50 (Beta-lactamase): 400 nM

Now from value to compound:

IC50 (Beta-lactamase): > 3200 nM
SMILES: CC1(C)[C@H](C(=O)O)N2C(=O)[C@@]3(C[C@H]3OC3CCCCC3)[C@H]2S1(=O)=O

MIC [3]: 8 µg/mL
SMILES: CC1(C)[C@H](C(=O)O)N2C(=O)[C@]3(C[C@@H]3OC3CCCCC3)[C@H]2S1(=O)=O.CCN1CCN(C(=O)N[C@@H](C(=O)N[C@@H]2C(=O)N3[C@@H]2SC(C)(C)[C@@H]3C(=O)O)c2ccccc2)C(=O)C1=O [listing 1 of 2 here]

IC50 (Beta-lactamase): 3200 nM
SMILES: CC1(C)[C@H](C(=O)O)N2C(=O)[C@@]3(C[C@@H]3OC3CCCCC3)[C@H]2S1(=O)=O

MIC (Escherichia coli): > 64 µg/mL
SMILES: CCN1CCN(C(=O)N[C@@H](C(=O)N[C@@H]2C(=O)N3[C@@H]2SC(C)(C)[C@@H]3C(=O)O)c2ccccc2)C(=O)C1=O [PIPERACILLIN]

MIC [3]: 4 µg/mL
SMILES: CCN1CCN(C(=O)N[C@@H](C(=O)N[C@@H]2C(=O)N3[C@@H]2SC(C)(C)[C@@H]3C(=O)O)c2ccccc2)C(=O)C1=O.C[C@]1(Cn2ccnn2)[C@H](C(=O)O)N2C(=O)C[C@H]2S1(=O)=O [listing 2 of 2 here]

MIC (Escherichia coli): 64 µg/mL
SMILES: CC1(C)[C@H](C(=O)O)N2C(=O)[C@]3(C[C@@H]3OC3CCCCC3)[C@H]2S1(=O)=O.CCN1CCN(C(=O)N[C@@H](C(=O)N[C@@H]2C(=O)N3[C@@H]2SC(C)(C)[C@@H]3C(=O)O)c2ccccc2)C(=O)C1=O [listing 2 of 2 here]

IC50 (Beta-lactamase): 30 nM
SMILES: CC1(C)[C@H](C(=O)O)N2C(=O)[C@]3(C[C@@H]3OC3CCCCC3)[C@H]2S1(=O)=O
